Assay results: patent US9101638B2, “Boronic acid derivatives and therapeutic uses thereof” (Rempex Pharmaceuticals, Inc., priority 2013, dated 2015)
pIC50, pKi: −log10 of the molar value. Where a name gives a salt, the structure may show the parent alone. Read-outs that look alike come from different tables or passages of the source.

Legend:
Thrombin = target: T1, Thrombin (Homo sapiens, UniProt P00734); assay: Serine protease inhibition: thrombin; assay type: biochemical, mammalian
T1 construct: Thrombin; MPBio; 19491880; purchased MPBio 19491880
Protocol: (§1) The effect of selected BLIs on the enzymatic activity of some common mammalian serine proteases was evaluated.
(§2) 50 μl of the diluted enzyme was mixed with 50 μl of inhibitor at various concentrations and 50 μl of corresponding buffer (Table 7). Reaction mixtures were incubated for 10 min at 37° C. Subsequently, 50 μl of corresponding substrate (Table 7) was added and absorbance or fluorescence was monitored for 30 min on SpectraMax M2 plate reader (Molecular Devices). 4-(2-Aminoethyl)benzenesulfonyl fluoride hydrochloride (AEBSF) and leupeptin were used as positive controls. Rates of reaction were calculated and presented relative to “no treatment” control.

Urokinase = target: T2, Urokinase (Homo sapiens, UniProt P00749); assay: Serine protease inhibition: urokinase; assay type: biochemical, mammalian
T2 construct: purchased Calbiochem 672112
Protocol: as §1, §2

Chymase = target: T3, Chymase (Homo sapiens, UniProt P23946); assay: Serine protease inhibition: chymase; assay type: biochemical, mammalian
T3 construct: purchased Enzo Lifescience BML-SE281
T3 sequence (P23946 22-247): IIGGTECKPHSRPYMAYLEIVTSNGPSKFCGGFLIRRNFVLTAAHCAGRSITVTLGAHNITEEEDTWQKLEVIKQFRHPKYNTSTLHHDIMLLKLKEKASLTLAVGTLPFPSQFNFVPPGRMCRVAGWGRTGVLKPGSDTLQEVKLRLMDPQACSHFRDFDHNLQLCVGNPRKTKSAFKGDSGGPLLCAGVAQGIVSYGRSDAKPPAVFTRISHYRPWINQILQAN
Protocol: as §1, §2

Neutrophil elastase = target: T4, Neutrophil elastase (Homo sapiens, UniProt P08246); assay: Serine protease inhibition: neutrophil elastase; assay type: biochemical, mammalian
T4 construct: purchased Calbiochem 324681
T4 sequence (P08246 30-267): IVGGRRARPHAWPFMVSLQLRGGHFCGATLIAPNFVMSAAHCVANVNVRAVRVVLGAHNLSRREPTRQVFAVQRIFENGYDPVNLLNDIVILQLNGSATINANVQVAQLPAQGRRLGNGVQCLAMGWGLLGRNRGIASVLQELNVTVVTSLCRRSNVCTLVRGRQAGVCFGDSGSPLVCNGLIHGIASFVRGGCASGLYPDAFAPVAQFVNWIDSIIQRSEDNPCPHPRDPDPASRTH
Protocol: as §1, §2

KP1005 (CTX-M-14) = assay: Potentiation of aztreonam, strain KP1005; assay type: cell-based
KP1009 (CTX-M-15) [1] = assay: Potentiation of aztreonam, strain KP1009; assay type: cell-based
ec308 (SHV-5) [2] = assay: Potentiation of aztreonam, strain ec308; assay type: cell-based; details: minimum BLI concentration inhibiting growth with 4 μg/mL aztreonam
ec302 (TEM-10) [3] = assay: Potentiation of aztreonam, strain ec302; assay type: cell-based
KP1004 (K-2) = assay: Potentiation of aztreonam, strain KP1004; assay type: cell-based; details: minimum BLI concentration inhibiting growth with 4 μg/mL aztreonam
ECL1002 = assay: Potentiation of aztreonam, strain ECL1002; assay type: cell-based; details: minimum BLI concentration inhibiting growth with 4 μg/mL aztreonam
EC1010 (CMY-6) [4] = assay: Potentiation of aztreonam, strain EC1010; assay type: cell-based
ec308 (SHV-5) [5] = assay: Potentiation of tigemonam, strain ec308; assay type: cell-based; details: minimum BLI concentration inhibiting growth with 4 μg/mL tigemonam
ec302 (TEM-10) [6] = assay: Potentiation of tigemonam, strain ec302; assay type: cell-based
EC1010 (CMY-6) [7] = assay type: cell-based
CTX-M-14 = CTX-M-14 (Escherichia coli, UniProt Q9L5C7); assay: Inhibition of nitrocefin cleavage by purified CTX-M-14; assay type: biochemical; details: nitrocefin reporter substrate, purified enzyme; read-out: Ki (CTX-M-14, NCF)
Chain of CTX-M-14 (Q9L5C7 entry or part of it): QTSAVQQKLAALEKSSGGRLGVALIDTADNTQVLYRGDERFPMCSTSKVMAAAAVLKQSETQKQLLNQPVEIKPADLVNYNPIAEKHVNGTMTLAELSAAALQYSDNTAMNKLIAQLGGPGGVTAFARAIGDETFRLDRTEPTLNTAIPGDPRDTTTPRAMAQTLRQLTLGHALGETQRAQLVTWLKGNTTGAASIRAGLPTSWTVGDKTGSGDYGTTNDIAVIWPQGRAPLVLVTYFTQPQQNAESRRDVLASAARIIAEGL
Protocol: (§3) Purified enzymes were mixed with various concentrations of inhibitors in reaction buffer and incubated for 10 min at room temperature. Nitrocefin was added and substrate cleavage profiles were recorded at 490 nm every 10 sec for 10 min.

SHV-12 = SHV-12 (Klebsiella pneumoniae, UniProt P0AD64, E235K/G234S/L31Q); assay: Inhibition of nitrocefin cleavage by purified SHV-12; assay type: biochemical; details: nitrocefin reporter substrate, purified enzyme; read-out: Ki (SHV-12, NCF)
Chain of SHV-12 (P0AD64 22-286 L31Q/G234S/E235K): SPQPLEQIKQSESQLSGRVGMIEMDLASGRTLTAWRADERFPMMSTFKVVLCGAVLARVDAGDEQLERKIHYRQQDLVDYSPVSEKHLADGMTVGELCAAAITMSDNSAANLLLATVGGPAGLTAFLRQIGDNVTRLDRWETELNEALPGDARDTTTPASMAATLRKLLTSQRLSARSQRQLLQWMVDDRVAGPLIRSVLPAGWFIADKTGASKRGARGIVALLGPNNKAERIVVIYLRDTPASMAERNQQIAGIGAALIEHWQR
Protocol: as §3

KPC-2 = KPC-2 (Klebsiella pneumoniae, UniProt Q9F663); assay: Inhibition of nitrocefin cleavage by purified KPC-2; assay type: biochemical; details: nitrocefin reporter substrate, purified enzyme; read-out: Ki (KPC-2, NCF)
Chain of KPC-2 (Q9F663 25-293, looked up, species assumed): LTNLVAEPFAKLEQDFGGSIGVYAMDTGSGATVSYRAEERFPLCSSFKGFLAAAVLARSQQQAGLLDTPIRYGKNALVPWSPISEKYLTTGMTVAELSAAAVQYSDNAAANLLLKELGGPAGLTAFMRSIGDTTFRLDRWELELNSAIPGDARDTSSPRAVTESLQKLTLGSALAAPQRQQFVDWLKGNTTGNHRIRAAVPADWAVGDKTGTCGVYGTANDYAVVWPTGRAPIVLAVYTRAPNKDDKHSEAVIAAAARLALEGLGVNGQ
Protocol: as §3

Chymotrypsin = target: T5, Chymotrypsin (Bos taurus, UniProt P00766); assay: Serine protease inhibition: chymotrypsin; assay type: biochemical, mammalian; details: Table 8A, class symbols; read-out: IC50 Chymotrypsin
T5 construct: purchased Calbiochem 230832
Protocol: as §1, §2

CathepsinA = target: T6, CathepsinA (Homo sapiens, UniProt P10619); assay: Serine protease inhibition: cathepsin A; assay type: biochemical, mammalian; details: Table 8B; read-out: IC50 CathepsinA
T6 construct: purchased R&D Systems 1049-SE
T6 sequence (P10619 29-480): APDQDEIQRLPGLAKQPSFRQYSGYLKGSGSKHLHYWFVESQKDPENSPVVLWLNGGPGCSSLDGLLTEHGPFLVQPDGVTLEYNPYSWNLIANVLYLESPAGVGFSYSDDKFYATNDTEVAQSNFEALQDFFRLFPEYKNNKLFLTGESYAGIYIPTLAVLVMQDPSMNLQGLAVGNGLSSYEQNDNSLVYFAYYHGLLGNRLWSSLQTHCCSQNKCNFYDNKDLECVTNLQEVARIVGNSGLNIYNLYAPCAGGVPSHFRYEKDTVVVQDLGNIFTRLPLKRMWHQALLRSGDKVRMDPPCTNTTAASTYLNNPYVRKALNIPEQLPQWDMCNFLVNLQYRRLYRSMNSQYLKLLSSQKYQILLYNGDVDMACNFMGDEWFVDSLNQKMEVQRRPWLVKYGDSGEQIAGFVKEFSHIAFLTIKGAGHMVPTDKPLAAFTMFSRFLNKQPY
Protocol: as §1, §2

CathepsinG = target: T7, CathepsinG (Homo sapiens, UniProt P08311); assay: Serine protease inhibition: cathepsin G; assay type: biochemical, mammalian; details: Table 8B
T7 construct: purchased EMD Millipore 219373
T7 sequence (P08311 21-244): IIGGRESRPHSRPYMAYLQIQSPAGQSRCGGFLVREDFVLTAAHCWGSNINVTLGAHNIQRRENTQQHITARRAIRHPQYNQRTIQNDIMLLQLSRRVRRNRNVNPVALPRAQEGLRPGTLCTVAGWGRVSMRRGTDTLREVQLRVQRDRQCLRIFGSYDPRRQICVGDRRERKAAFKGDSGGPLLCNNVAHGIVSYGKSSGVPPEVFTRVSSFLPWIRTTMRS
Protocol: as §1, §2

[8] = target: T8, Dipeptidyl peptidase 8 (DPP8) (Homo sapiens, UniProt Q6V1X1); assay: Serine protease inhibition: DPP8; assay type: biochemical, mammalian; details: Table 8B; read-out: IC50 DPP8
T8 construct: purchased BPS Bioscience 80080
T8 sequence (Q6V1X1 whole entry): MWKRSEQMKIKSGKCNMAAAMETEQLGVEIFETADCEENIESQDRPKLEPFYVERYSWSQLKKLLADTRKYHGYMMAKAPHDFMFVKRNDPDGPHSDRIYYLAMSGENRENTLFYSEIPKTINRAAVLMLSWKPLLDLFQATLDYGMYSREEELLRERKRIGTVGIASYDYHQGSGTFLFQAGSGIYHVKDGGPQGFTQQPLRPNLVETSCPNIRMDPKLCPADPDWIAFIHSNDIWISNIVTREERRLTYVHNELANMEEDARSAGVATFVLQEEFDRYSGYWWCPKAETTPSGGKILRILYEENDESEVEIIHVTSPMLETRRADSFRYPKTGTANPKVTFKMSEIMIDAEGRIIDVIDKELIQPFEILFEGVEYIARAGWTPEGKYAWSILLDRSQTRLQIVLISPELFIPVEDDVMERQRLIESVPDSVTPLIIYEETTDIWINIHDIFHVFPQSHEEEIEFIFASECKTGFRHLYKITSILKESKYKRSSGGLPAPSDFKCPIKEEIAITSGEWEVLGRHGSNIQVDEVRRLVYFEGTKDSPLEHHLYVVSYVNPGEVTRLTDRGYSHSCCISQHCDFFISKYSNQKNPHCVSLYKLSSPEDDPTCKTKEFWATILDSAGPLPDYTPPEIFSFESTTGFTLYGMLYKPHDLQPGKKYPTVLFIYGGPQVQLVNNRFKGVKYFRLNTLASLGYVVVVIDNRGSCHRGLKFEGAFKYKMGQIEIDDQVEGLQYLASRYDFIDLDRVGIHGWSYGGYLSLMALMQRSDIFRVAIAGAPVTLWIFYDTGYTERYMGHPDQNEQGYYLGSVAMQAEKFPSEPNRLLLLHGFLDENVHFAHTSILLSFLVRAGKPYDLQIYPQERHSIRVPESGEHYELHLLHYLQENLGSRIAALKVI
Protocol: as §1, §2

[9] = target: T9, Dipeptidyl peptidase 9 (DPP9) (Homo sapiens, UniProt Q86TI2); assay: Serine protease inhibition: DPP9; assay type: biochemical, mammalian; details: Table 8B; read-out: IC50 DPP9
T9 construct: purchased BPS Bioscience 80090
T9 sequence (Q86TI2 whole entry): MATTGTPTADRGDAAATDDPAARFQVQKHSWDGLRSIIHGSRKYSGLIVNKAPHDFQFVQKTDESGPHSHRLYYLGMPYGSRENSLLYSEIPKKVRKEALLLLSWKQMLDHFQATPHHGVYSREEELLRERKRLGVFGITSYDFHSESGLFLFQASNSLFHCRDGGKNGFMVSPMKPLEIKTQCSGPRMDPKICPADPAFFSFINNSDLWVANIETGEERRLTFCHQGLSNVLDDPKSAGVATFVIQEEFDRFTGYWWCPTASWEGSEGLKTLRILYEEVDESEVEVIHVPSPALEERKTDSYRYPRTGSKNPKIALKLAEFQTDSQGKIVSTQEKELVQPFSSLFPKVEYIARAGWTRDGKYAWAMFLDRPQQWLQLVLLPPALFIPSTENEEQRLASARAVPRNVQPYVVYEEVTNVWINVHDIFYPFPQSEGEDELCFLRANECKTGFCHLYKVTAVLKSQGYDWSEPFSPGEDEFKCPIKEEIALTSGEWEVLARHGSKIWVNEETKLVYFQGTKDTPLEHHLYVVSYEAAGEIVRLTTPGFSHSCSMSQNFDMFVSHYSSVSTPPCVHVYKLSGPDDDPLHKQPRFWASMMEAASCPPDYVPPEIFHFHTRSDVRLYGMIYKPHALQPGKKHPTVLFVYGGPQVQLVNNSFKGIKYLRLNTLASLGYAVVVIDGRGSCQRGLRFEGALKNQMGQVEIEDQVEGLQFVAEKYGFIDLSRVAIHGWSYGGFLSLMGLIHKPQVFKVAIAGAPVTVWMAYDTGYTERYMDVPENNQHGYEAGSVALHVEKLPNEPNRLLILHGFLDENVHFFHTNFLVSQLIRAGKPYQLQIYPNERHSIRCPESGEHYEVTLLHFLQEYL
Protocol: as §1, §2

KP1009 (CTX-M-15) [10] = assay: Potentiation of tigemonam, strain KP1009; details: minimum BLI concentration inhibiting growth with 4 μg/mL tigemonam
OXA-48 = OXA-48 (Klebsiella pneumoniae, UniProt Q6XEC0); assay: Inhibition of nitrocefin cleavage by purified OXA-48; assay type: biochemical; details: nitrocefin reporter substrate, purified enzyme; read-out: Ki (OXA-48, NCF)
Chain of OXA-48 (Q6XEC0 23-265 limits assumed): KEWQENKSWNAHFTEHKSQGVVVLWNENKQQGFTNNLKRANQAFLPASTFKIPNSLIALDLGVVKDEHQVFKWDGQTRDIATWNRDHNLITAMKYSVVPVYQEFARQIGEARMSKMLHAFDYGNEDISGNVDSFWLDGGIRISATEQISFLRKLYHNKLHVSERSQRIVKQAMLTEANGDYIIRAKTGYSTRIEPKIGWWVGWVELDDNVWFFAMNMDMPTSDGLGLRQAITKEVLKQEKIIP
Protocol: as §3

PAM1032/KPC-2 = assay: Biapenem potentiation in PAM1032/KPC-2 (MexAB-OprM overexpressed); assay type: cell-based, Pseudomonas aeruginosa; details: BLI potency to decrease biapenem MIC 64-fold, 32 to 0.5 μg/ml; efflux proficient strain
Protocol: (§4) Efflux of BLIs from Pseudomonas aeruginosa by the MexAB-OprM efflux pump was also evaluated. […] Due to expression of KPC-2 both strains became resistant to biapenem. […] Potency of BLIs to potentiate biapenem in these strains was determined. […] The ratio of MPC64 values for each BLI in PAM1032/KPC-2 (efflux proficient) and PAM1154/KPC-2 (efflux deficient) was determined to generate the Efflux Index (EI).

PAM1154/KPC-2 = assay: Biapenem potentiation in PAM1154/KPC-2 (MexAB-OprM lacking); assay type: cell-based, Pseudomonas aeruginosa
Protocol: as §4

SMILES | AZT MPC4 CTX-M-14 KP1005 (KP1005 (CTX-M-14)) | AZT MPC4 CTX-M-15 KP1009 (KP1009 (CTX-M-15) [1]) | AZT MPC4 SHV-5 ec308 (ec308 (SHV-5) [2]) | AZT MPC4 TEM-10 ec302 (ec302 (TEM-10) [3]) | AZT MPC4 K-2 KP1004 (KP1004 (K-2)) | AZT MPC4 ECL1002 (ECL1002) | AZT MPC4 CMY-6 EC1010 (EC1010 (CMY-6) [4]) | TIG MPC4 SHV-5 ec308 (ec308 (SHV-5) [5]) | TIG MPC4 TEM-10 ec302 (ec302 (TEM-10) [6]) | TIG MPC4 CMY-6 EC1010 (EC1010 (CMY-6) [7]) | pKi (CTX-M-14) | pKi (SHV-12) | pKi (KPC-2) | pIC50 (CathepsinA) | pIC50 (CathepsinG) | TIG MPC4 CTX-M-15 KP1009 (KP1009 (CTX-M-15) [10]) | also measured
NCCc1ccc(S(=O)(=O)F)cc1 [AEBSF, 4-(2-Aminoethyl)benzenesulfonyl fluoride hydrochloride, reference compound] | – | – | – | – | – | – | – | – | – | – | – | – | – | – | – | – | pIC50 (Thrombin): 4.00; pIC50 (Urokinase): 5.09; pIC50 (Chymase): 3.43; pIC50 (Neutrophil elastase): < 3.30
O=C(COCc1ccccc1)N[C@H]1Cc2cccc(C(=O)O)c2OB1O [CPD B, reference compound] | Z (key: X = MIC of less than 1 μg/mL; Y = MIC of 1 μg/mL to 10 μg/mL; Z = MIC of greater than 10 μg/mL) | Z (key: X = MIC of less than 1 μg/mL; Y = MIC of 1 μg/mL to 10 μg/mL; Z = MIC of greater than 10 μg/mL) | Y (Y = MIC of 1 μg/mL to 10 μg/mL) | Z (key: X = MIC of less than 1 μg/mL; Y = MIC of 1 μg/mL to 10 μg/mL; Z = MIC of greater than 10 μg/mL) | Z (Z = MIC of greater than 10 μg/mL) | Z (Z = MIC of greater than 10 μg/mL) | Z (key: X = MIC of less than 1 μg/mL; Y = MIC of 1 μg/mL to 10 μg/mL; Z = MIC of greater than 10 μg/mL) | Y (Y = MIC of 1 μg/mL to 10 μg/mL) | Z (key: X = MIC of less than 1 μg/mL; Y = MIC of 1 μg/mL to 10 μg/mL; Z = MIC of greater than 10 μg/mL) | Y (key: X = MIC of less than 1 μg/mL; Y = MIC of 1 μg/mL to 10 μg/mL; Z = MIC of greater than 10 μg/mL) | > 9.00 | > 9.00 | < 8.00 | 3.30 to 4.82 | 3.30 to 4.82 | Z (Z = MIC of greater than 10 μg/mL) | pIC50 (Chymotrypsin): < 3.10; pIC50 (Thrombin; Table 8A, class symbols, read-out: IC50 Thrombin): < 3.10; pIC50 (Chymase; Table 8A, class symbols, read-out: IC50 Chymase): 3.10 to 3.52; pIC50 (Neutrophil elastase; Table 8B, read-out: IC50 Neutrophil elastase): < 3.30; pIC50 [8]: 3.30 to 4.82; pIC50 [9]: < 3.30
O=C(N[C@H]1Cc2cccc(C(=O)O)c2OB1O)c1cncs1 [Compound 15, (R)-2-hydroxy-3-(thiazole-5-carboxamido)-3,4-dihydro-2H-benzo[e][1,2]oxaborinine-8-carboxylic acid] | Y (key: X = MIC of less than 1 μg/mL; Y = MIC of 1 μg/mL to 10 μg/mL; Z = MIC of greater than 10 μg/mL) | Y (key: X = MIC of less than 1 μg/mL; Y = MIC of 1 μg/mL to 10 μg/mL; Z = MIC of greater than 10 μg/mL) | X (X = MIC of less than 1 μg/mL) | X (key: X = MIC of less than 1 μg/mL; Y = MIC of 1 μg/mL to 10 μg/mL; Z = MIC of greater than 10 μg/mL) | Y (Y = MIC of 1 μg/mL to 10 μg/mL) | Y (Y = MIC of 1 μg/mL to 10 μg/mL) | Y (key: X = MIC of less than 1 μg/mL; Y = MIC of 1 μg/mL to 10 μg/mL; Z = MIC of greater than 10 μg/mL) | Y (Y = MIC of 1 μg/mL to 10 μg/mL) | Y (key: X = MIC of less than 1 μg/mL; Y = MIC of 1 μg/mL to 10 μg/mL; Z = MIC of greater than 10 μg/mL) | Y (key: X = MIC of less than 1 μg/mL; Y = MIC of 1 μg/mL to 10 μg/mL; Z = MIC of greater than 10 μg/mL) | > 9.00 | > 9.00 | < 8.00 | 3.30 to 4.82 | 3.30 to 4.82 | Y (Y = MIC of 1 μg/mL to 10 μg/mL) | pKi (OXA-48): > 9.00; PAM1032/KPC-2 Biapenem MPC64 (PAM1032/KPC-2): Z (Z Greater than 40); PAM1154/KPC-2 Biapenem MPC64 (PAM1154/KPC-2): X (key: X = Less than 10; Y = 10 to 40; Z Greater than 40)
